Assay results: publication PMC6928678, “Simplified Head-to-Tail Cyclic Polypeptides as Biomaterial-Associated Antimicrobials with Endotoxin Neutralizing and Anti-Inflammatory Capabilities” (International Journal of Molecular Sciences, 2019)
Converted amounts (≈) assume the structure as drawn. Where two headings read alike, the source gives them in different places. Where a SMILES comes first, the peptide text is derived from it. Where no end group is shown, it is not given here. [ ]: non-standard residue; d: D form.

What was measured:
E. coli 25922 = assay: microbe, parasite or virus in culture; assay type: cell-based, Escherichia coli
Protocol: (§1) The test strains, including Gram-negative E. coli ATCC25922, E. coli ATCC 1005, S. typhimurium C7731, P. aeruginosa ATCC 27853, S. Typhimurium 14028, Gram-positive S. aureus ATCC29213, S. aureus ATCC 25923, S. epidermidis ATCC 12228 and S. aureus 43300, were obtained from the School of Veterinary Medicine, Northeast Agricultural University (Harbin, China).
(§2) Briefly, the bacteria were incubated overnight at 37 °C with constant shaking at 220 rpm, then were transferred to new MH broth (MHB) medium until they reached the logarithmic phase of growth. The bacteria were then diluted to 10^5 (CFU)/mL in MHB. The peptides were dissolved and diluted in 0.01% acetic acid and 0.2% bovine serum albumin (BSA) at various concentrations (0.5–128 μM) in each well of sterile 96-well plates and incubated for 20 h at 37 °C. […] The test was repeated three times.

E. coli UB 1005 = assay: microbe, parasite or virus in culture; assay type: cell-based, Escherichia coli
Protocol: as §1, §2

S. aureus 25923 = assay: microbe, parasite or virus in culture; assay type: cell-based, Staphylococcus aureus
Protocol: as §1, §2

S. aureus 29213 = assay: microbe, parasite or virus in culture; assay type: cell-based, Staphylococcus aureus
Protocol: as §1, §2

MRSA43300 = assay: microbe, parasite or virus in culture; assay type: cell-based, Methicillin-resistant Staphylococcus aureus
Protocol: as §1, §2

P. aeruginosa 27853 = assay: microbe, parasite or virus in culture; assay type: cell-based
Protocol: as §1, §2

S. epidermidis 12228 = assay: microbe, parasite or virus in culture; assay type: cell-based
Protocol: as §1, §2

S. typhimurium 14028 = assay: microbe, parasite or virus in culture; assay type: cell-based
Protocol: as §1, §2

S. typhimurium 7731 = assay: microbe, parasite or virus in culture; assay type: cell-based
Protocol: as §1, §2

[1] = system: gram-negative strains tested; assay: Geometric mean of MICs, gram-negative strains; assay type: cell-based; conditions: 5 gram-negative strains; >128 apparently counted as 256; read-out: nGM (–), geometric mean of the MICs against gram-negative strains
Protocol: as §2

[2] = system: gram-positive strains tested; assay: organism not typed; assay type: cell-based
Protocol: as §2

[3] = system: all the 9 bacteria tested; assay: Geometric mean of MICs, all 9 bacteria; assay type: cell-based; conditions: for GM MIC (range of Gram-negative and Gram-positive geometric means): Table 2; for tGM, geometric mean of the MICs against all the 9 bacteria: all 9 bacteria tested
Protocol: as §2

[4] = system: human red blood cells (hRBCs); assay: Hemolysis assay; assay type: cell-based
Protocol: Figure 2 (A) Hemolytic activity of the engineered peptides against human red blood cells (hRBCs). The hRBCs were incubated with equal amounts of the respective peptides dissolved in PBS for 1 h at 37 °C. (B) Cytotoxicity of the engineered peptides against RAW264.7. […] Data shown are three independent experiments.
The hemolytic activity of the peptides is determined by measuring the amount of hemoglobin released during the lysis of human erythrocytes at different concentrations of AMPs. Briefly, fresh, healthy human red blood cells (hRBCs) were collected and then washed three times with phosphate-buffered saline (PBS) buffer (pH 7.2) and centrifuged at 1000× g for 5 min. Each 50 µL sample of hRBCs was incubated with 50 µL of the respective peptide dissolved in PBS in a well of a 96-well plate for 1 h at 37 °C. After incubation, the samples were centrifuged at 1000× g for 5 min and the supernatants (50 μL) were transferred to a new 96-well microplate. The release of hemoglobin was measured by monitoring the OD at 570 nm (Tecan, Salzburg, Austria). Negative (hRBCs without AMP treatment) and positive (hRBCs treated with 0.1% TritonX-100) controls were used. The concentration of peptide that caused 5% hemolysis was considered the minimal hemolysis concentration (MHC). The test was repeated three times. The percent hemolysis was calculated using the following formula:(2) Percent hemolysis=A−A0/At−A0× 100% A0 and At represent 0% and 100% hemolysis as measured in 10 mM PBS and 0.2% Triton X-100, respectively.

[5] = system: Gram-positive and Gram-negative bacteria; assay: Antimicrobial assay (MIC), statement over all strains; assay type: cell-based; conditions: all strains tested
Protocol: as §2

| Compound | MIC [1] | MIC (E. coli 25922; 25922, 20 h) | MIC (E. coli UB 1005; UB 1005, 20 h) | MIC (S. aureus 25923; 25923, 20 h) | MIC (S. aureus 29213; 29213, 20 h) | MIC (MRSA43300; 20 h) | MIC (P. aeruginosa 27853; 27853, 20 h, read-out: MIC) | MIC (S. epidermidis 12228; 12228, 20 h) | MIC (S. typhimurium 14028; 14028, 20 h) | MIC (S. typhimurium 7731; 7731, 20 h) | pGM (+), geometric mean of the MICs against gram-positive strains ([2]; 20 h) | tGM, geometric mean of the MICs against all the 9 bacteria [3] | MHC5, minimum hemolytic concentration that induced ≥5% hemolysis ([4]; red cells of human, 1 h) | further results |
| --- | --- | --- | --- | --- | --- | --- | --- | --- | --- | --- | --- | --- | --- | --- |
| O=C(N[C@H](CO)[C@H](O)c1ccc([N+](=O)[O-])cc1)C(Cl)Cl [CH, Chloramphenicol, reference compound] | 18.4 µM (≈ 5.95 µg/mL) | – | – | – | – | – | – | – | – | – | – | – | – | MIC (E. coli 25922; Escherichia coli, E. coli 25922, MHB, 10^5 CFU/mL, 0.5–128 μM peptide, 20 h 37 °C, OD 492 nm, repeated three times): 16 µM (≈ 5.17 µg/mL); MIC (E. coli UB 1005; Escherichia coli, UB1005, E. coli UB 1005, MHB, 10^5 CFU/mL, 20 h 37 °C, repeated three times): 4 µM (≈ 1.29 µg/mL); MIC (S. aureus 25923; Staphylococcus aureus, S. aureus 25923, MHB, 10^5 CFU/mL, 20 h 37 °C, repeated three times): 32 µM (≈ 10.3 µg/mL); MIC (S. aureus 29213; Staphylococcus aureus, S. aureus 29213, MHB, 10^5 CFU/mL, 20 h 37 °C, repeated three times): 8 µM (≈ 2.59 µg/mL); MIC (MRSA43300; Staphylococcus aureus, MRSA43300, MHB, 10^5 CFU/mL, 20 h 37 °C, repeated three times): 32 µM (≈ 10.3 µg/mL); MIC (P. aeruginosa 27853; Pseudomonas aeruginosa, 27853, 20 h): > 128 µM; MIC (S. epidermidis 12228; Staphylococcus epidermidis, S. epidermidis 12228, MHB, 10^5 CFU/mL, 20 h 37 °C, repeated three times): 32 µM (≈ 10.3 µg/mL); MIC (S. typhimurium 14028; Salmonella enterica, S. typhimurium 14028, MHB, 10^5 CFU/mL, 20 h 37 °C, repeated three times): 16 µM (≈ 5.17 µg/mL); MIC (S. typhimurium 7731; Salmonella enterica, S. typhimurium 7731, MHB, 10^5 CFU/mL, 20 h 37 °C, repeated three times): 8 µM (≈ 2.59 µg/mL); MIC ([2]; read-out: pGM (+), geometric mean of the MICs against gram-positive strains): 22.6 µM (≈ 7.3 µg/mL); GM MIC (range of Gram-negative and Gram-positive geometric means) [3]: 18.4 to 22.6 µM; MIC ([3]; read-out: tGM, geometric mean of the MICs against all the 9 bacteria): 20.2 µM (≈ 6.53 µg/mL); MHC5, minimum hemolytic concentration that induced ≥5% hemolysis ([4]; human red blood cells, PBS, 1 h at 37 °C, OD 570 nm, repeated three times): >128 µM |
| CC[C@H](C)[C@H](N)C(=O)N[C@@H](CCCNC(=N)N)C(=O)N1CCC[C@@H]1C(=O)N[C@H](C(=O)N[C@@H](CCCNC(=N)N)C(=O)N1CCC[C@@H]1C(=O)O)[C@@H](C)CC [DIR1] (H-IR[dP]IR[dP]-OH) | 256 µM (≈ 192 µg/mL) | >128 µM | >128 µM | >128 µM | >128 µM | >128 µM | >128 µM | >128 µM | >128 µM | >128 µM | 256 µM | 256 µM | >128 µM | MIC in the presence of Gram-positive and Gram-negative bacteria [5]: greater than 128 μM |
| CC[C@H](C)[C@H](N)C(=O)N[C@@H](CCCNC(=N)N)C(=O)N[C@H](C(=O)N[C@@H](CCCNC(=N)N)C(=O)N1CCC[C@@H]1C(=O)N[C@H](C(=O)N[C@@H](CCCNC(=N)N)C(=O)N[C@H](C(=O)N[C@@H](CCCNC(=N)N)C(=O)N1CCC[C@@H]1C(=O)O)[C@@H](C)CC)[C@@H](C)CC)[C@@H](C)CC [DIR2] (H-IRIR[dP]IRIR[dP]-OH) | 194.0 µM (≈ 250 µg/mL) | 128 µM (≈ 165 µg/mL) | 128 µM (≈ 165 µg/mL) | >128 µM | >128 µM | >128 µM | >128 µM | >128 µM | >128 µM | >128 µM | 256 µM | 219.5 µM | >128 µM | – |
| CC[C@H](C)[C@H](N)C(=O)N[C@@H](CCCNC(=N)N)C(=O)N[C@H](C(=O)N[C@@H](CCCNC(=N)N)C(=O)N[C@H](C(=O)N[C@@H](CCCNC(=N)N)C(=O)N1CCC[C@@H]1C(=O)N[C@H](C(=O)N[C@@H](CCCNC(=N)N)C(=O)N[C@H](C(=O)N[C@@H](CCCNC(=N)N)C(=O)N[C@H](C(=O)N[C@@H](CCCNC(=N)N)C(=O)N1CCC[C@@H]1C(=O)O)[C@@H](C)CC)[C@@H](C)CC)[C@@H](C)CC)[C@@H](C)CC)[C@@H](C)CC [DIR3] (H-IRIRIR[dP]IRIRIR[dP]-OH) | – | 4 µM (≈ 7.31 µg/mL) | 4 µM (≈ 7.31 µg/mL) | 64 µM (≈ 117 µg/mL) | 8 µM (≈ 14.6 µg/mL) | 64 µM (≈ 117 µg/mL) | 8 µM (≈ 14.6 µg/mL) | 128 µM (≈ 234 µg/mL) | 16 µM (≈ 29.3 µg/mL) | 4 µM (≈ 7.31 µg/mL) | 45.3 µM | – | >128 µM | – |
| Colistin Sulfate [CS, reference compound] | 0.8 µM | – | – | – | – | – | – | – | – | – | – | 5.9 µM | – | MIC (E. coli 25922; E. coli 25922, MHB, 10^5 CFU/mL, 0.5–128 μM peptide, 20 h 37 °C, OD 492 nm, repeated three times): 0.5 µM; MIC (E. coli UB 1005; E. coli UB 1005, MHB, 10^5 CFU/mL, 20 h 37 °C, repeated three times): 0.5 µM; MIC (S. aureus 25923; S. aureus 25923, MHB, 10^5 CFU/mL, 20 h 37 °C, repeated three times): 64 µM; MIC (S. aureus 29213; S. aureus 29213, MHB, 10^5 CFU/mL, 20 h 37 °C, repeated three times): 64 µM; MIC (MRSA43300; MRSA43300, MHB, 10^5 CFU/mL, 20 h 37 °C, repeated three times): 64 µM; MIC (P. aeruginosa 27853; P. aeruginosa 27853, MHB, 10^5 CFU/mL, 20 h 37 °C, repeated three times, read-out: MIC): 0.5 µM; MIC (S. epidermidis 12228; S. epidermidis 12228, MHB, 10^5 CFU/mL, 20 h 37 °C, repeated three times): 128 µM; MIC (S. typhimurium 14028; S. typhimurium 14028, MHB, 10^5 CFU/mL, 20 h 37 °C, repeated three times): 4 µM; MIC (S. typhimurium 7731; S. typhimurium 7731, MHB, 10^5 CFU/mL, 20 h 37 °C, repeated three times): 0.5 µM; pGM (+), geometric mean of the MICs against gram-positive strains ([2]; 4 gram-positive strains, >128 apparently counted as 256): 76.1 µM; GM MIC (range of Gram-negative and Gram-positive geometric means) [3]: 0.8 to 76.1 µM |
| IRIRIRPIRIRIRP [IR3] | 12.1 µM | 16 µM | 8 µM | 64 µM | 64 µM | 64 µM | 8 µM | >128 µM | 16 µM | 16 µM | 90.5 µM | – | >128 µM | – |
| IRIRPIRIRP [IR2] | 256 µM | >128 µM | >128 µM | >128 µM | >128 µM | >128 µM | >128 µM | >128 µM | >128 µM | >128 µM | 256 µM | 256 µM | >128 µM | – |
| IRPIRP [IR1] | 256 µM | >128 µM | >128 µM | >128 µM | >128 µM | >128 µM | >128 µM | >128 µM | >128 µM | >128 µM | 256 µM | 256 µM | >128 µM | MIC in the presence of Gram-positive and Gram-negative bacteria [5]: greater than 128 μM |
